In ChEMBL document CHEMBL5096221, “Discovery of a Highly Potent and Orally Bioavailable STAT3 Dual Phosphorylation Inhibitor for Pancreatic Cancer Treatment” (J Med Chem, 2022):
pIC50, pKd: −log10 of the molar value. The source made the active and inactive calls. No cut-off for these calls is given here.

What was measured:
[1] = target: T1, Signal transducer and activator of transcription 3 (Homo sapiens, UniProt P40763); experiment: Inhibition of STAT3 in human BXPC-3 cells assessed as inhibition of STAT3 phosphorylation at Tyr 705 at 30 nM incubated for 4 to 24 hrs by western blot analysis; type: cell-based; details: time 4-24 hrs, TDE = time-dependent effect
Cytochrome P450 3A4 = Cytochrome P450 3A4 (Homo sapiens, UniProt P08684); experiment: Inhibition of CYP3A4 in human liver microsomes using testosterone as substrate in presence of NADPH by HPLC analysis; type: ADME, Microsome
Mus musculus = experiment: In vivo inhibition of STAT3 in BALB/c mouse xenografted with human BXPC-3 cells assessed as inhibition of STAT3 phosphorylation at Tyr 705 at 10 mg/kg,po administrated once daily for 8 weeks by immunohistochemical analysis; type: functional, organism-based
[2] = Toxicity in BALB/c mouse xenografted with human BXPC-3 cells assessed as body weight change at 10 mg/kg,po administrated once daily for 8 weeks; type: organism-based; details: in vivo, 1344 h
BXPC-3 [3] = experiment: Inhibition of mitochondrial respiration in human BXPC-3 cells assessed as reduction in basal respiration rate at 1 to 30 nM incubated for 1 hr by seahorse XF96 flux analyzer; type: functional, cell-based; details: dose 1-30 nM, DDE = dose-dependent effect
BXPC-3 [4] = experiment: Inhibition of mitochondrial respiration in human BXPC-3 cells assessed as reduction in maximal respiration rate at 1 to 30 nM incubated for 1 hr by seahorse XF96 flux analyzer; type: functional, cell-based; details: dose 1-30 nM, DDE = dose-dependent effect
CFPAC-1 [5] = experiment: Anti-proliferative activity against human CFPAC-1 cells assessed as cell growth inhibition incubated for 72 hrs by MTS assay; type: functional, cell-based; details: CFPAC-1, 72 h
[6] = target: T1, Signal transducer and activator of transcription 3; experiment: Inhibition of STAT3 in human BXPC-3 cells assessed as reduction of Cyclin D1 expression at 30 nM incubated for 4 to 24 hrs by western blot analysis; type: cell-based; details: time 4-24 hrs, TDE = time-dependent effect
Capan-2 [7] = experiment: Anti-proliferative activity against human Capan-2 cells assessed as cell growth inhibition incubated for 72 hrs by MTS assay; type: functional, cell-based; details: Capan-2, 72 h
[8] = Microsomal stability in human liver microsomes assessed as half life incubated upto 40 mins in presence of NADPH by LC-MS/MS analysis; type: ADME, Microsome
BXPC-3 [9] = experiment: Antitumor activity against human BXPC-3 cells xenografted BALB/c mouse model assessed as reduction in Ki67 expression at 10 mg/kg,po administrated once daily for 8 weeks by immunohistochemical analysis; type: functional, organism-based
[10] = Toxicity in BALB/c mouse xenografted with human BXPC-3 cells assessed as effect on lung at 30 mg/kg,po administrated once daily for 8 weeks by H and E staining based microscopic analysis; type: organism-based; details: in vivo, 1344 h
[11] = Half life in BALB/c mouse at 1 mg/kg,iv measured upto 24 hrs by LC-MS/MS analysis; type: ADME, organism-based; details: in vivo
BXPC-3 [12] = experiment: Inhibition of colony formation in human BXPC-3 cells at 3 to 10 nM incubated for 5 to 7 days by crystal violet staining assay; type: functional, cell-based; details: dose 3-10 nM, time 5-7 day, DDE = dose-dependent effect
[13] = Toxicity in BALB/c mouse xenografted with human BXPC-3 cells assessed as effect on spleen at 10 mg/kg,po administrated once daily for 8 weeks by H and E staining based microscopic analysis; type: organism-based; details: in vivo, 1344 h
[14] = Toxicity in BALB/c mouse xenografted with human BXPC-3 cells assessed as body weight change at 30 mg/kg,po administrated once daily for 8 weeks; type: organism-based; details: in vivo, 1344 h
[15] = target: T1, Signal transducer and activator of transcription 3; experiment: Inhibition of STAT3 in human BXPC-3 cells assessed as inhibition of STAT3 phosphorylation at Tyr 705 at 1 to 30 nM incubated for 22 to 24 hrs by western blot analysis; type: cell-based; details: dose 1-30 nM, time 22-24 hrs, DDE = dose-dependent effect
Cytochrome P450 2C19 = Cytochrome P450 2C19 (Homo sapiens, UniProt P33261); experiment: Inhibition of CYP2C19 in human liver microsomes; type: ADME, Microsome
[16] = target: T1, Signal transducer and activator of transcription 3; experiment: Binding affinity to human recombinant STAT3 expressed in Escherichia coli BL21 by MST assay
BXPC-3 [17] = experiment: Inhibition of mitochondrial respiration in human BXPC-3 cells assessed as reduction in oxygen consumption rate at 1 to 30 nM incubated for 1 hr by seahorse XF96 flux analyzer; type: functional, cell-based; details: dose 1-30 nM, DDE = dose-dependent effect
[18] = target: T1, Signal transducer and activator of transcription 3; experiment: Inhibition of STAT3 in human Capan-2 cells assessed as reduction of c-Myc expression at 1 to 30 nM incubated for 22 to 24 hrs by western blot analysis; type: cell-based; details: dose 1-30 nM, time 22-24 hrs, DDE = dose-dependent effect
[19] = Toxicity in BALB/c mouse xenografted with human BXPC-3 cells assessed as effect on liver at 30 mg/kg,po administrated once daily for 8 weeks by H and E staining based microscopic analysis; type: organism-based; details: in vivo, 1344 h
[20] = target: Tyrosine-protein kinase JAK2 (Homo sapiens, UniProt O60674); experiment: Inhibition of JAK2 (unknown origin)
[21] = Oral bioavailability in BALB/c mouse at 10 mg/kg,po measured upto 24 hrs by LC-MS/MS analysis; type: ADME, organism-based; details: in vivo
BXPC-3 [22] = experiment: Antitumor activity against human BXPC-3 cells xenografted BALB/c mouse model assessed as reduction in Ki67 expression at 30 mg/kg,po administrated once daily for 8 weeks by immunohistochemical analysis; type: functional, organism-based
[23] = target: Epidermal growth factor receptor (Homo sapiens, UniProt P00533); experiment: Inhibition of EGFR (unknown origin)
[24] = Inhibition of ATP production in human BXPC-3 cells incubated for 20 to 24 hrs by ATP assay kit method; type: functional, cell-based
BXPC-3 [25] = experiment: Antitumor activity against human BXPC-3 cells xenografted BALB/c mouse model assessed as tumor growth inhibition at 30 mg/kg,po administrated once daily for 8 weeks; type: functional; details: BXPC-3, 1344 h, read-out: TGI
[26] = Toxicity in BALB/c mouse xenografted with human BXPC-3 cells assessed as effect on heart at 30 mg/kg,po administrated once daily for 8 weeks by H and E staining based microscopic analysis; type: organism-based; details: in vivo, 1344 h
CFPAC-1 [27] = experiment: Inhibition of mitochondrial respiration in human CFPAC-1 cells at 1 to 30 nM incubated for 1 hr by seahorse XF96 flux analyzer; type: functional, cell-based; details: dose 1-30 nM, DDE = dose-dependent effect
[28] = Microsomal stability in dog liver microsomes assessed as compound remaining incubated for 60 mins in presence of NADPH by LC-MS/MS analysis; type: ADME, Canis lupus familiaris, Microsome; details: read-out: Stability
[29] = target: T1, Signal transducer and activator of transcription 3; experiment: Thermal stabilization of STAT3 in human BXPC-3 cells at 10 microM at 42.9 degreeC incubated for 1 hrs by cellular thermal shift assay; type: cell-based
Capan-2 [30] = experiment: Inhibition of colony formation in human Capan-2 cells at 3 to 10 nM incubated for 5 to 7 days by crystal violet staining assay; type: functional, cell-based; details: dose 3-10 nM, time 5-7 day, DDE = dose-dependent effect
[31] = Half life in BALB/c mouse at 10 mg/kg,po measured upto 24 hrs by LC-MS/MS analysis; type: ADME, organism-based; details: in vivo
[32] = MRT (0 to last) in BALB/c mouse at 1 mg/kg,iv measured upto 24 hrs by LC-MS/MS analysis; type: ADME, organism-based; details: BALB/c, in vivo
[33] = Cmax in BALB/c mouse at 10 mg/kg,po measured upto 24 hrs by LC-MS/MS analysis; type: ADME, organism-based; design: time < 24 hrs, dose 10 mg/kg, route po; details: in vivo
CFPAC-1 [34] = experiment: Inhibition of mitochondrial respiration in human CFPAC-1 cells assessed as reduction in basal respiration rate at 1 to 30 nM incubated for 1 hr by seahorse XF96 flux analyzer; type: functional, cell-based; details: dose 1-30 nM, DDE = dose-dependent effect

T1 sequence (P40763 whole entry): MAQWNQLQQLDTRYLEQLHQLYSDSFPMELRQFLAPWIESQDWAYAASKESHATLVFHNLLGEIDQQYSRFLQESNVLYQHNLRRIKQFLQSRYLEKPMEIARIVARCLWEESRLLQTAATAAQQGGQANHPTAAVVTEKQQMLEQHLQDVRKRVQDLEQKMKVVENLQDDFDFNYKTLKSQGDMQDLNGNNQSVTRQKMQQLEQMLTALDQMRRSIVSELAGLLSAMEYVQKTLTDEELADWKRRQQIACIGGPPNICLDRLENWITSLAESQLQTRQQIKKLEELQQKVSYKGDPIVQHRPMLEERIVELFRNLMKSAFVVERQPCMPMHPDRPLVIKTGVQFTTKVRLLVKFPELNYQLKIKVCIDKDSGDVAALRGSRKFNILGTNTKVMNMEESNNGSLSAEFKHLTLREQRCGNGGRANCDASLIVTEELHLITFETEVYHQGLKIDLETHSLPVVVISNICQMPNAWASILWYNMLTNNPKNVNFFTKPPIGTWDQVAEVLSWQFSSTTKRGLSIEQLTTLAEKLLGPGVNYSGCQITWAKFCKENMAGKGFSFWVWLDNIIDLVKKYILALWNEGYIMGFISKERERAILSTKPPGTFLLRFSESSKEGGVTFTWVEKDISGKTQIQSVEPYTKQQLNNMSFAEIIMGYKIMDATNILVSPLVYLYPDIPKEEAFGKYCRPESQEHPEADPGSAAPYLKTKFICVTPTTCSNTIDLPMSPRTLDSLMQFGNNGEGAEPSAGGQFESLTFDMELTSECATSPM
Sequence of Tyrosine-protein kinase JAK2 (O60674 whole entry): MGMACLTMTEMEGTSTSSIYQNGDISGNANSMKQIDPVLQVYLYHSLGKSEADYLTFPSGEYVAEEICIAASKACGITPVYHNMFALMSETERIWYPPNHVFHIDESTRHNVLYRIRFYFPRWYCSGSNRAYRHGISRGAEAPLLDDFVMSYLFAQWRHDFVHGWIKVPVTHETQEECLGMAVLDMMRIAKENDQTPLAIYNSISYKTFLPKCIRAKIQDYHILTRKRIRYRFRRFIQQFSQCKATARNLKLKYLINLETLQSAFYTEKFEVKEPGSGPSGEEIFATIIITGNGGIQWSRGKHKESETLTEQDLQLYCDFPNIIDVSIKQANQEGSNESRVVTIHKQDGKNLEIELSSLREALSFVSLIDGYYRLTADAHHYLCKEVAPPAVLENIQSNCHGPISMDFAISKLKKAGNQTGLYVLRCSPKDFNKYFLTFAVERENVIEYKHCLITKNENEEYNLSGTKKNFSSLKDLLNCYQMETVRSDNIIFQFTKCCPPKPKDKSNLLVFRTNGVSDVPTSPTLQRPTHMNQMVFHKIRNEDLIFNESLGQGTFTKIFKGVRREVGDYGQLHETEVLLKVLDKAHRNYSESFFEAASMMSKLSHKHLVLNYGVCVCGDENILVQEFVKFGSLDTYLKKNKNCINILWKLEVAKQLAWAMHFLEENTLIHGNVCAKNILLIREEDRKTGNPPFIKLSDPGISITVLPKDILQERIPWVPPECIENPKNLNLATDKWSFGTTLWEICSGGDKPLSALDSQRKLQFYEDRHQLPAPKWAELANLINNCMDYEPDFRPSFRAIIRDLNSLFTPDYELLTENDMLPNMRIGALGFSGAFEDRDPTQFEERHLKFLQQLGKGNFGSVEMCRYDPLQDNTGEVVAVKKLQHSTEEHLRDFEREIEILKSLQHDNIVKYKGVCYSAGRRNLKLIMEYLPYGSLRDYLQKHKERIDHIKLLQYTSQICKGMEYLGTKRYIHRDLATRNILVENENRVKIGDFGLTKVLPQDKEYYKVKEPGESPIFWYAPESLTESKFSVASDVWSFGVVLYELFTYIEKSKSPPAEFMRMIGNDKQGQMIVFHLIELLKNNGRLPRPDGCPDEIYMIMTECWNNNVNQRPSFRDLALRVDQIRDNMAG
Sequence of Epidermal growth factor receptor (P00533 whole entry): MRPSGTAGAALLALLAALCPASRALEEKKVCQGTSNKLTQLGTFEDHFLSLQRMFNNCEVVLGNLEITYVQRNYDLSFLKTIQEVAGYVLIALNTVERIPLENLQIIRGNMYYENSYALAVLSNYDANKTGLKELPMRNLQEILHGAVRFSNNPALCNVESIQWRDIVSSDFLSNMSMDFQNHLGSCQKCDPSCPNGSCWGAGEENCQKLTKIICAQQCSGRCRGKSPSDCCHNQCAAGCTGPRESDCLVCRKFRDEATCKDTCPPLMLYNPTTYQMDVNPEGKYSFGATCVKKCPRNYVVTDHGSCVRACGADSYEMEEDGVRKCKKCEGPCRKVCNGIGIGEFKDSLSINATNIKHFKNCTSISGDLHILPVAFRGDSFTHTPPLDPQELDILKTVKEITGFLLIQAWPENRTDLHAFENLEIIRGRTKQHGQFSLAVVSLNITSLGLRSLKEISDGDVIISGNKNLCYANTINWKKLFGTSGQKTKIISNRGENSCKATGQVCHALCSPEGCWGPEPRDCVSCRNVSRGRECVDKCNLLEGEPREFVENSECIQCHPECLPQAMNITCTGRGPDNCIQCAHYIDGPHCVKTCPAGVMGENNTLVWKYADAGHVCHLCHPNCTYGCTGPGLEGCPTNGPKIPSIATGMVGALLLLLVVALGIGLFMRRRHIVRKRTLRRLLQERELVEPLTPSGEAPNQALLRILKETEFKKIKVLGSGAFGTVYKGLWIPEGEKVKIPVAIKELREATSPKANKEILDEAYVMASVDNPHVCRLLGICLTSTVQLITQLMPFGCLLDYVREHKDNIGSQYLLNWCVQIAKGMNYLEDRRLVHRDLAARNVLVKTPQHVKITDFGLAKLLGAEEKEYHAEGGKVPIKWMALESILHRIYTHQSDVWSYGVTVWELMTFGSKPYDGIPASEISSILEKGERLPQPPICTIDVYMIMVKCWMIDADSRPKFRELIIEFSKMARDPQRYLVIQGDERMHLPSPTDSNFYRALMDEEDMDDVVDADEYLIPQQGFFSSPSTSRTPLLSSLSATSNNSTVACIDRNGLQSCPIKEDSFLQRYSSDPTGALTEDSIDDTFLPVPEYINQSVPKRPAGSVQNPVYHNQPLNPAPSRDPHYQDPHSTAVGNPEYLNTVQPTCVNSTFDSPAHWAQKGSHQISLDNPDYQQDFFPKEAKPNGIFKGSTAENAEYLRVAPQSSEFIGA
Sequence of Cytochrome P450 2C19 (P33261 whole entry): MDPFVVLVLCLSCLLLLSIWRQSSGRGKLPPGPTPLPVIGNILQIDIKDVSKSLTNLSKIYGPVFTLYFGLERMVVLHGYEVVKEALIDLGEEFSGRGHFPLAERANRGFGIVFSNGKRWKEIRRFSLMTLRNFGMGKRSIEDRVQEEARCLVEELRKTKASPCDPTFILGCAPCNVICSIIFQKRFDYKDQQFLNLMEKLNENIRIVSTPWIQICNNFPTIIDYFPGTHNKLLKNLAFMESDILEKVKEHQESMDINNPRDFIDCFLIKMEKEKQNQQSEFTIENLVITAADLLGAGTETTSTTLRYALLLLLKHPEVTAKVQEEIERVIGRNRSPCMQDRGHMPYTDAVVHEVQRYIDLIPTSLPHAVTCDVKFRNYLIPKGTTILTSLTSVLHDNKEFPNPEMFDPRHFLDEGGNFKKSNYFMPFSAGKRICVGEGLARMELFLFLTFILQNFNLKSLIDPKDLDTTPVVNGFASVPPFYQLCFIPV
Sequence of Cytochrome P450 3A4 (P08684 whole entry): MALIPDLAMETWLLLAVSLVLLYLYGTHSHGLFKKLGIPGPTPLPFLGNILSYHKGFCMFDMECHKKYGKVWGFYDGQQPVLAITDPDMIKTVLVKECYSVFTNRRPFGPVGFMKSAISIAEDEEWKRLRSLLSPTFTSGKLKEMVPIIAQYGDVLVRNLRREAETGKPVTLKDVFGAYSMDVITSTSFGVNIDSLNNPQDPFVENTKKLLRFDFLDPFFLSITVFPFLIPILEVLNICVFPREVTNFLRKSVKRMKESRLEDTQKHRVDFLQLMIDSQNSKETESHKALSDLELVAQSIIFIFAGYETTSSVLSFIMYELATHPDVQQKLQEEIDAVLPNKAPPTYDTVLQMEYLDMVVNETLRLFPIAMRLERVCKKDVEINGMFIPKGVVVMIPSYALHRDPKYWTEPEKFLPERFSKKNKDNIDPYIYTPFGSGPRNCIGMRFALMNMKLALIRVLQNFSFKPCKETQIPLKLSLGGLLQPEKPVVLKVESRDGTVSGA

inhibition [1]: Tde | pIC50 (Cytochrome P450 3A4): < 4.30 | inhibition [6]: Tde | half-life [8]: 1.26 h | half-life [11]: 10.2 h | inhibition [15]: Dde | pIC50 (Cytochrome P450 2C19): < 4.30 | pKd [16]: 7.67 | inhibition [18]: Dde | pIC50 [20]: < 5.00 | bioavailability [21]: 29.1% | pIC50 [23]: < 5.00 | pIC50 [24]: 8.38 | remaining at 1 h [28]: 55.8% | Activity [29]: Active | half-life [31]: 9.4 h | MRT last at 24 h [32]: 8.1 h | Cmax [33]: 1810 ng/mL
SMILES: COc1ccc(-c2noc(-c3cnc(Oc4ccc5cc(C(=O)N6CCN(Cc7ccc(OCC(F)(F)F)cc7)CC6)n(C)c5c4)cn3)n2)cc1
inhibition (Mus musculus): Active | Activity [2]: Non-Toxic | inhibition (BXPC-3 [3]): Dde | inhibition (BXPC-3 [4]): Dde | pIC50 (CFPAC-1 [5]): 8.22 | pIC50 (Capan-2 [7]): 8.72 | Activity (BXPC-3 [9]): Active | Activity [10]: Non-Toxic | inhibition (BXPC-3 [12]): Dde | Activity [13]: Non-Toxic | Activity [14]: Non-Toxic | inhibition (BXPC-3 [17]): Dde | Activity [19]: Non-Toxic | Activity (BXPC-3 [22]): Active | inhibition in vivo at 30 mg/kg (BXPC-3 [25]): 74.6% | Activity [26]: Non-Toxic | inhibition (CFPAC-1 [27]): Dde | inhibition (Capan-2 [30]): Dde | inhibition (CFPAC-1 [34]): Dde
